The values that follow come from patent US20240327471A1, “IL-10 INDUCING POLYPEPTIDES AND USES THEREOF” (ENTEROME S.A., priority 2021, published 2024).

In this test the test system is TNBS-induced colitis. The test can be described thus: Acute colitis induced by TNBS in rats (Wallace score, colon Lipocalin-2, mortality). The format is in vivo, Sprague-Dawley rats. The settings on record: intrarectal; for Wallace score: once a day, evaluated 4 days after TNBS. An excerpt:
Next, anti-inflammatory properties of the NAT_29 polypeptide (SEQ ID NO: 1) have been evaluated in the 2,4,6-trinitrobenzene sulfonic acid (TNBS)-induced colitis model. The model of colitis induced by TNBS in rats is a validated animal model to evaluate the anti-inflammatory properties of drugs in intestinal bowel diseases (IBD). TNBS induces deep inflammation resulting in necrosis (with transmural destruction of the intestine wall) of the colon. This model is well-characterized, reliable, reproducible, and admitted by regulatory authorities in IBD (e.g., as described in Antoniou, E., et al. (2016). The TNBS-induced colitis animal model: An overview. Annals of medicine and surgery, vol. 11, 9-15, which is incorporated herein in its entirety).
To this end, the NAT_29 polypeptide (SEQ ID NO: 1) was administered by intrarectal instillation at two different concentrations (1 and 0.1 μM) in the model of acute colitis induced by TNBS (intrarectal administration at 80 mg/kg) in Sprague-Dawley rats. The anti-inflammatory effects were evaluated at the macroscopic level using validated score of Wallace and compared to those induced by the positive control (5-ASA) administered also by intrarectal instillation.
Resolution of inflammation was also evaluated using colon Lipocalin-2 (Lcn-2) quantification. Lipocalin-2, also known as neutrophil gelatinase-associated lipocalin (NGAL), is considered as a clinically relevant biomarker of IBD. […] In rodent models of colitis, a strong association has been shown between elevated levels of Lcn-2 and colitis severity.
Male Sprague-Dawley rats (Body weight: around 100-150 g) were allocated randomly and blindly 4 per cage and acclimated for one week. Rats were obtained from Janvier Laboratoires, Le Genest Saint-Isle, France.
The tested products were administered once a day by intrarectal instillation (500μl) in a prophylactic and therapeutic mode starting at day -5, i.e. 5 days before colitis induction (DO) and until euthanasia at D4, corresponding to 9 treatment days in total.
For colitis induction, Sprague Dawley rats were anesthetized for 2 hours using a subcutaneous injection of xylazine at 12.5 mg/kg/ketamin at 25 mg/kg. […] The TNBS solution at 80 mg/kg was prepared based on the mean body weight of rats, which is recorded before the TNBS solution preparation.
NAT_29 was solubilized in PBS and the active concentration for animal treatment was calculated assuming a maximum volume of colon-rectum content in rat of 3.5ml. […]
Animals were sacrificed 4 days (D4) after TNBS administration (DO) for evaluation of the intensity of colitis. Samples from distal colon were collected and used for macroscopic assessments and lipocalin quantification. […]

“KKGSRSCFFIYLDRGTKKGSRSCFFYLP (NAT_29) [28-amino-acid fragment of microbiota protein ID3166]”: the Wallace score result is given as “protective effect (albeit not significant)” (final concentration of 0.1 μM) and “statistically protective effect” (final concentration of 1 μM). For the same sequence, the “lipocalin-2 level in the colon (ELISA)” value (final concentration of 0.1 μM, 4 days after TNBS) was “slight decrease of lipocalin-2 level (albeit not significant)”. Moreover, the “Lipocalin levels in the colon (ELISA)” value (final concentration of 1UM, 4 days after TNBS) is reported as “significant decrease of Lipocalin levels”.
